Test results published in patent publication US20240409558A1, “IRREVERSIBLE INHIBITORS OF KRAS” (BIOMEA FUSION, INC., priority 2021, published 2024).
Like-named read-outs stand apart in the source and are kept apart here.

Test system: human KRAS G12C mutated cell line MIA PaCa-2
Experiment: Inhibition of proliferation of MIA PaCa-2 cells (CellTiter-Glo, 7 day)
Assay type: cell-based
Details: 168 h, mean, read-out: MIA PaCa-2 IC50 (μM) 7 day Mean
Source text: The present example evaluates the ability of compounds provided herein to inhibit proliferation of KRAS mutant cells.
The proliferation inhibitory effect was investigated in the human KRAS G12C mutated cell line MIA PaCa-2 (Yunis et al., 1977, Int. J. Cancer 19(1):128-135; ATCC catalog no. CRL-1420). Cells were maintained in RPMI-1640 medium (ThermoFisher catalog no. 61870036) supplemented with 10% of Heat Inactivated FBS (ThermoFisher catalog no. A31605) and 1% Pen-Strep (ThermoFisher catalog no. 10378016) and cultured at 37° C. in a humidified incubator with 5% CO2. Cell lines were grown by adhering to culture flasks, and the cells were maintained in a range 70%-80% confluency.
ATP is present in all metabolically active cells and is considered as a marker for cell viability and proliferation. Metabolic cell activity was determined using the CellTiter-Glo kit (Promega catalog no. G7572), an ATP monitoring system based on the production of luminescence by the reaction of ATP with added UltraGlo® recombinant luciferase (Kawano et al., 2016, PLOS One, 8; 11(7):e0158888), according to the supplier's experimental recommendations. The assay was based on a 96 well plate format.
Test compounds were dissolved at 10 mM in DMSO (Sigma catalog no. D8418; purity >99.9%) and stored at −20° C. Eight concentrations of test compound were assessed in duplicate in an individual test occasion in parallel in the selected cell lines. MRTX-849 and AMG-510 were used as reference compounds and tested in duplicate at eight concentrations. 100% of proliferation is represented by the untreated cells (0.2% DMSO).
(§1) On the day of the experiment (TO), cells were detached with TrypLE (ThermoFisher catalog no. 12604054) and quantified using the Vi-CELL XR Cell Viability (Beckman Coulter) analyzer and diluted with fresh medium to obtain the cell density of about 1000 cells per 200 μL medium. 200 μL of cell suspension were added into wells in the 96 well plate.
After 2 hours from seeding cells, compounds were added using a D300e compound dispenser (Tecan Trading AG) at desired concentrations with shaking between each compound dispensed. Cell plates containing 200 μL/well were incubated at 37° C. in a humidified incubator with 5% CO2.
On day T3, 150 μL of growth media per well were removed from plates containing the samples, 150 uL fresh growth media were added to each well, and fresh compounds were added using a D300e compound dispenser (Tecan Trading AG) at desired concentrations with shaking between each compound dispensed. Cell plates containing 200 uL/well were incubated at 37° C. in a humidified incubator with 5% CO2. On day T7 plates containing the samples were equilibrated at room temperature for approximately 15 min, and then 40 μL/well of the Promega CellTiterGlo® reagent was added. Contents were mixed for 30 minutes on an orbital shaker to induce cell lysis. Luminescence was read using a Synergy Neo 2 (Agilent Technologies.
Data was expressed as % of inhibition compared to the 0.2% DMSO negative control, and is calculated as follows: % inhibition=100−[(RLU sample)×100/(RLU controls*)], where * indicates the average for 0.2% DMSO. […]
as §1, with “12604054),” for “12604054) and”, “resuspended in” for “diluted with”, “at a” for “to obtain the”, “to each well of a” for “into wells in the”
Two hours after seeding cells, compounds were added at desired concentrations using a D300e compound dispenser (Tecan Trading AG) with shaking after each compound addition. Assay plates were incubated at 37° C. in a humidified incubator with 5% CO2.
On day 3 (T3) 150 μL of medium from assay plates were removed. 150 μL fresh medium and compounds were added at desired concentrations using a D300e compound dispenser (Tecan Trading AG) with shaking after each compound addition. […]

| Structure (SMILES) | IC50 (Table 3, 7 day) [µM] | IC50 (Table 4, 7 day) [µM] |
| --- | --- | --- |
| C=CC(=O)N1C2CCC1CN(c1nc(OC[C@@]34CCCN3C[C@H](F)C4)nc3cc(-c4cccc5cccc(Cl)c45)ccc13)C2 [Compound 324, 1-[3-[7-(8-chloro-1-naphthyl)-2-[[(2R,8S)-2-fluoro-1,2,3,5,6,7-hexahydropyrrolizin-8-yl]methoxy]quinazolin-4-y1]-3,8-diazabicyclo[3.2.1]octan-8-yl]prop-2-en-1-one] | > 1 |  |
| C=CC(=O)N1C2CCC1CN(c1cc(OC[C@@]34CCCN3C[C@H](F)C4)nc3c(F)c(-c4cc(O)cc(Cl)c4C4CC4)ccc13)C2 [Compound 326] | > 1 |  |
| C=CC(=O)N1C2CCC1CN(c1nc(OC[C@@]34CCCN3C[C@H](F)C4)nc3c(F)c(N4CC(O)Cc5cccc(Cl)c54)ncc13)C2 (stereo partly drawn) [Compound 328, 1-[3-[7-(8-chloro-3-hydroxy-3,4-dihydro-2H-quinolin-1-yl)-8-fluoro-2-[[(2R,8S)-2-fluoro-1,2,3,5,6,7-hexahydropyrrolizin-8-yl]methoxy]pyrido[4,3-d]pyrimidin-4-yl]-3,8-diazabicyclo[3.2.1]octan-8-yl]prop-2-en-1-one] | > 1 |  |
| C=CC(=O)N1CCC(c2nc(OC[C@@]34CCCN3C[C@H](F)C4)nc3c(F)c(-c4cc(O)cc5ccc(F)c(F)c45)ncc23)CC1 [Compound 330] | 0.00664 |  |
| C=CC(=O)N1C2CCC1CC(c1nc(OC[C@@]34CCCN3C[C@H](F)C4)nc3c(F)c(-c4cc(O)cc5ccc(F)c(F)c45)ncc13)C2 (stereo partly drawn) [Compound 333] | 1.75 |  |
| Oc1cc2cccc(-c3ncc4c(N5CC6CCC(C5)N6)nc(OC[C@@]56CCCN5C[C@H](F)C6)nc4c3F)c2c(F)c1F [Compound 401, 5-[4-(3,8-diazabicyclo[3.2.1]octan-3-yl)-8-fluoro-2-[[(2R,8S)-2-fluoro-1,2,3,5,6,7-hexahydropyrrolizin-8-yl]methoxy]pyrido[4,3-d]pyrimidin-7-y1]-3,4-difluoro-naphthalen-2-ol] |  | > 1 |
| Oc1cc(Cl)c(C2CC2)c(-c2cc3nc(OC[C@@]45CCCN4C[C@H](F)C5)nc(N4CC5CCC(C4)N5)c3cc2F)c1 [Compound 404, 3-chloro-4-cyclopropyl-5-[4-(3,8-diazabicyclo[3.2.1]octan-3-yl)-6-fluoro-2-[[(2R,8S)-2-fluoro-1,2,3,5,6,7-hexahydropyrrolizin-8-yl]methoxy]quinazolin-7-yl]phenol] |  | > 1 |
| Fc1cc2c(N3CCNCC34CC4)nc(OC[C@@]34CCCN3C[C@H](F)C4)nc2cc1-c1cccc2cccc(Cl)c12 [Compound 408, 7-(8-chloro-1-naphthyl)-4-(4,7-diazaspiro[2.5]octan-4-yl)-6-fluoro-2-[[(2R,8S)-2-fluoro-1,2,3,5,6,7-hexahydropyrrolizin-8-yl]methoxy]quinazoline] |  | > 1 |
| Oc1cc(Cl)c(C2CC2)c(-c2cnc3c(N4CCNC5(CC5)C4)nc(OC[C@@]45CCCN4C[C@H](F)C5)nc3c2)c1 [Compound 410] |  | > 1 |

Continued, values first:

| IC50 (Table 3, 7 day) [µM] | IC50 (Table 4, 7 day) [µM] | Structure (SMILES) |
| --- | --- | --- |
| 0.0112 |  | C=CC(=O)N1CCN(c2nc(OC[C@@]34CCCN3C[C@H](F)C4)nc3cc(-c4c(O)cccc4C4CC4)c(F)cc23)[C@H](C)C1 [Compound 325, 1-[(3R)-4-[7-(2-cyclopropyl-6-hydroxy-phenyl)-6-fluoro-2-[[(2R,8S)-2-fluoro-1,2,3,5,6,7-hexahydropyrrolizin-8-yl]methoxy]quinazolin-4-yl]-3-methyl-piperazin-1-yl]prop-2-en-1-one] |
| 0.0144 |  | C=CC(=O)N1CCC(c2nc(OC[C@@]34CCCN3C[C@H](F)C4)nc3c(F)c(-c4cc(O)cc(Cl)c4C4CC4)ncc23)CC1 [Compound 329] |
| 0.0373 |  | C=CC(=O)N1CCC(c2nc(OC[C@@]34CCCN3C[C@H](F)C4)nc3c(F)c(-c4cc(O)cc5ccc(F)c(F)c45)ncc23)C[C@@H]1C (stereo partly drawn) [Compound 331, 1-[(2S)-4-[7-(7,8-difluoro-3-hydroxy-1-naphthyl)-8-fluoro-2-[[(2R,8S)-2-fluoro-1,2,3,5,6,7-hexahydropyrrolizin-8-yl]methoxy]pyrido[4,3-d]pyrimidin-4-y1]-2-methyl-1-piperidyl]prop-2-en-1-one] |
| > 1 |  | C=CC(=O)N1CCC(CC)(c2nc(OC[C@@]34CCCN3C[C@H](F)C4)nc3c(F)c(-c4cc(O)cc(Cl)c4C4CC4)ncc23)CC1 [Compound 332, 1-[4-[7-(3-chloro-2-cyclopropyl-5-hydroxy-phenyl)-8-fluoro-2-[[(2R,8S)-2-fluoro-1,2,3,5,6,7-hexahydropyrrolizin-8-yl]methoxy]pyrido[4,3-d]pyrimidin-4-yl]-4-ethyl-1-piperidyl]prop-2-en-1-one] |
| 0.858 |  | C=CC(=O)N1CCC(C)(c2nc(OC[C@@]34CCCN3C[C@H](F)C4)nc3c(F)c(-c4cc(O)cc(Cl)c4C4CC4)ncc23)CC1 [Compound 335] |
|  | 7.83 | Oc1cc(-c2ncc3c(C45CCNCC4C5)nc(OC[C@@]45CCCN4C[C@H](F)C5)nc3c2F)c2ccccc2c1 (stereo partly drawn) [Compound 403, 4-[4-(3-azabicyclo[4.1.0]heptan-6-yl)-8-fluoro-2-[[(2R,8S)-2-fluoro-1,2,3,5,6,7-hexahydropyrrolizin-8-yl]methoxy]pyrido[4,3-d]pyrimidin-7-yl]naphthalen-2-ol] |
|  | > 1 | Oc1cc(Cl)c(C2CC2)c(-c2cc3nc(OC[C@@]45CCCN4C[C@H](F)C5)nc(N4CCNC5(CC5)C4)c3cc2F)c1 [Compound 405, 3-chloro-4-cyclopropyl-5-[4-(4,7-diazaspiro[2.5]octan-7-y1)-6-fluoro-2-[[(2R,8S)-2-fluoro-1,2,3,5,6,7-hexahydropyrrolizin-8-yl]methoxy]quinazolin-7-yl]phenol] |
|  | > 1 | Oc1cc(Cl)c(C2CC2)c(-c2cnc3c(N4C[C@H]5C[C@@H]4CN5)nc(OC[C@@]45CCCN4C[C@H](F)C5)nc3c2)c1 [Compound 406, 3-chloro-4-cyclopropyl-5-[4-[(1R,4R)-2,5-diazabicyclo[2.2.1]heptan-2-yl]-2-[[(2R,8S)-2-fluoro-1,2,3,5,6,7-hexahydropyrrolizin-8-yl]methoxy]pyrido[3,2-d]pyrimidin-7-yl]phenol] |
|  | > 1 | N#C[C@H]1CNCCN1c1nc(OC[C@@]23CCCN2C[C@H](F)C3)nc2cc(F)c(-c3cccc4cccc(Cl)c34)cc12 [Compound 407, (2R)-1-[6-(8-chloro-1-naphthyl)-7-fluoro-2-[[(2R,8S)-2-fluoro-1,2,3,5,6,7-hexahydropyrrolizin-8-yl]methoxy]quinazolin-4-yl]piperazine-2-carbonitrile] |
|  | > 1 | Oc1cc(Cl)c(C2CC2)c(-c2ccc3c(N4CCNC5(CC5)C4)nc(OC[C@@]45CCCN4C[C@H](F)C5)nc3c2F)c1 [Compound 409, 3-chloro-4-cyclopropyl-5-[4-(4,7-diazaspiro[2.5]octan-7-yl)-8-fluoro-2-[[(2R,8S)-2-fluoro-1,2,3,5,6,7-hexahydropyrrolizin-8-yl]methoxy]quinazolin-7-yl]phenol] |
|  | > 1 | Fc1cc2c(N3C[C@H]4C[C@@H]3CN4)nc(OC[C@@]34CCCN3C[C@H](F)C4)nc2cc1-c1cccc2cccc(Cl)c12 [Compound 411, 7-(8-chloro-1-naphthyl)-4-[(1R,4R)-2,5-diazabicyclo[2.2.1]heptan-2-y1]-6-fluoro-2-[[(2R,8S)-2-fluoro-1,2,3,5,6,7-hexahydropyrrolizin-8-yl]methoxy]quinazoline] |
|  | > 1 | Oc1cc(Cl)c(C2CC2)c(-c2cc3nc(OC[C@@]45CCCN4C[C@H](F)C5)nc(N4CCNCC45CC5)c3cc2F)c1 [Compound 412, 3-chloro-4-cyclopropyl-5-[4-(4,7-diazaspiro[2.5]octan-4-yl)-6-fluoro-2-[[(2R,8S)-2-fluoro-1,2,3,5,6,7-hexahydropyrrolizin-8-yl]methoxy]quinazolin-7-yl]phenol] |
